The values below come from patent US6902931B1 (priority 1998, dated 2005).

The test system of data set [1] is NIH/3T3 murine fibroblasts. The data set is described as follows: Clonogenic assay. Type of data set: cell-based. The following applies: post-thaw; H5 and 0.4 M trehalose; from approximately 200±12 plated cells, one week. The method, then: For each condition, approximately 200 of the cells that had plated in 3 hours were replated in a […] for one week. To obtain 200 fibroblasts, cells were diluted to 2×10^5 cells/ml, and 1 μl of cell solution was introduced into a P60 petri dish (Falcon) containing 12 ml of DMEM with BCS. After one week, cells were fixed by a 0.5% glutaraldehyde wash and stained by Rhodamine B (Sigma) to enhance colony visibility. The number of colonies formed was determined by visual inspection.

Data set [2] deals with NIH/3T3 murine fibroblasts. The data set is described as follows: Viability after vacuum drying and rehydration. The class given is cell-based. The following applies: H5-porated; for protection of cells subjected to vacuum drying: 0.3 M sugar; for cells that successfully attached at three hours / survival rate: 0.3M sugar; for cells that successfully attached at three hours: vacuum dried 2 hours at ambient temperature, rehydrated; for survival rate: vacuum dried, adjusted for cell loss using control samples. As to the method: The efficacy of intracellular trehalose for vacuum dried fibroblasts was also tested. NIH/3T3 murine fibroblasts, prepared as in Example 1, were resuspended in phosphate buffered saline (PBS) solution and the cell density was counted. Cell density was then adjusted to 100,000 cells/ml by diluting with PBS and the sample was divided into three equal aliquots of 4.0 ml each. To each aliquot, 1.0 ml of 25 μg/ml H5 was added, reducing cell density to 8×10^4. The aliquots were incubated at room temperature for 15 minutes with occasional mixing.
In the first two aliquots, enough 1.0M stock solution of either trehalose or sucrose in PBS was added to obtain a final sugar concentration of 0.3M. In the third aliquot, an equivalent amount of PBS, without sugar, was added.
The three aliquots were dispersed in triplicate wells at 20 μl/well into four duplicate 12-well plates. Two of the twelve well plates were incubated at 37° C. and 10% CO2 as controls. The remaining two plates were vacuum dried for 2 hours at ambient temperature. After drying, the dried samples were rehydrated and the poration reversed with serum containing DMEM.
Viability assays were performed by counting attached cells at 3 hours, and cells that remained attached and divided during the next 24 hours. The experiments were repeated three times. […] Adjusting for cell loss due to handling, poration, etc. using the control samples, survival rates of 4% for the cells dried in trehalose and 3% for the cells dried in sucrose were obtained.

The next data set concerns 3T3 fibroblasts. The data set is described as follows: Volumetric response of porated cells in hypertonic sugar solution (sugar uptake). The class given is cell-based, murine. The method, then: Sugar may be added to the cell suspension in an HBS solution to the final desired concentration. Porated cells may be incubated in the sugar containing solution for 45 minutes. […] Of course the length of time required for sugar uptake may vary with the type of cell and the level of cell poration. Sugar uptake may be measured by both the uptake of radiolableled sugar into porated cells as well as by the volumetric response of porated cells placed in a hypertonic sugar solution, yielding statistically correlative results.
Following poration, 0-1.0 M trehalose (final concentration) in HBS solution (Sigma) was added to the cell suspension, as indicated in FIG. 4. To allow for trehalose uptake, porated cells were incubated in the solution for 45 min. […] [Russo et al., “Reversible permeabilization of plasma membranes with an engineered switchable pore,” Nature Biotech. 15, 278-282 (1997).] This uptake was measured by both the uptake of radiolableled sugar into porated cells as well as by the volumetric response of porated cells placed in a hypertonic sugar solution, yielding statistically correlative results. By repeating the volumetric experiments using hypertonic trehalose solutions and 25 μg/ml of porating agent, volumetric equilibration over 90% over a 45 min interval was achieved, indicating the equilibration of intracellular trehalose concentration with that of the suspending solution.

In data set [3] the test system is NIH/3T3 murine fibroblasts. The following applies: mouse, pH 7.4.
Data set [4] concerns NIH/3T3 murine fibroblasts.
A further data set can be described thus: in vitro. The following applies: mouse, pH 7.4.

Each structure is given as a SMILES string.

As for `OC[C@H]1O[C@H](O[C@H]2O[C@H](CO)[C@@H](O)[C@H](O)[C@H]2O)[C@H](O)[C@@H](O)[C@@H]1O` [Trehalose, trehalose], the colonies formed in data set [1] stood at 211.6±5.2 colonies. Moreover, in data set [2], the “protection of cells subjected to vacuum drying” value is reported as “effective in protecting cells subjected to vacuum drying”, the “cells that successfully attached at three hours” value came to 48±3 cells and the survival rate was 4%. Moreover, in the data set on 3T3 fibroblasts (data not shown), the “trehalose concentration at which fibroblasts reach minimum volume” value is reported as “about 0.4 M”. In addition, in the data set on 3T3 fibroblasts (hypertonic trehalose solutions, 25 μg/ml porating agent, 45 min interval), the volumetric equilibration entry is “over 90%”. Also, the “viability and function after 1 hour” value in data set [3] is recorded as 70-80%. Moreover, in data set [4], the “additional loss of porated cells (18 hours growth)” value turned out to be 10%; the “fibroblasts withstanding osmotic shock (18 hours growth)” value is “over 95%”; the “higher than all control data to which trehalose was not added” value was 70-80%; the “loss of population between 1 hour and 3h / 18 hours” value was “over 60%”. In addition, in data set [4], the “loss of viability or function” value is on record as “did not demonstrate a significant loss of viability” and the population loss result is listed as “loss of half of their populations”. This molecule also had a viability in “in vitro” of 10%.
Consider `OC[C@H]1O[C@@](CO)(O[C@H]2O[C@H](CO)[C@@H](O)[C@H](O)[C@H]2O)[C@@H](O)[C@@H]1O` [sucrose], for which, in data set [2], the “protection of cells subjected to vacuum drying” value is recorded as “effective in protecting cells subjected to vacuum drying”, the “cells that successfully attached at three hours” value is 36±3 cells and the survival rate is listed as 3%.

Broadly, the viability is a read-out of living cells in per cent, often relative to untreated cells. The low end stands for more harm to the cells, the high end for less harm to the cells.
